Test results taken from patent publication US11478440B2, “Combination of Elafibranor or derivatives thereof with an anti-NASH, anti-fibrotic or anti-cholestatic agent” (GENFIT, priority 2017, dated 2022).

Tests used:
NASH = settings: over 800 patients and healthy volunteers; cited from earlier work
[1] = up to 2-year carcinogenicity studies; cited from earlier work
[2] = tested on: fibrosing NASH-model of rats fed a CDAA+1% cholesterol diet; assay: Chronic CDAA+1% cholesterol rat model: hepatic gene expression (qPCR); assay type: in vivo, Wistar rats; settings: liver; GFT505 3 mg/kg/d, OCA 10 mg/kg/d, alone or combined; 12 weeks
Protocol: The preventive effects of Elafibranor alone, OCA alone and the combination of both were assessed in a fibrosing NASH-model of rats fed a CDAA+1% cholesterol diet. 150-175 g male Wistar rats were fed a control (CSAA) diet, CDAA+1% cholesterol diet, or CDAA+1% cholesterol diet supplemented with Elafibranor 1, 3 and 10 mg/kg/day, OCA 10 and 30 mg/kg/day or combined drugs (Elafibranor 1, 3 and 10 mg/kg/day combined to OCA 10 mg/kg/day) for 12 weeks.
The body weight and the food intake were monitored twice per week. On the last day of treatment, rats were sacrificed after a 6 h fasting period. The liver was rapidly excised for biochemical and histological studies.
Total RNA was isolated from rat livers using RNeasy Mini Kit (Qiagen) following manufacturer's instructions. Total RNA were reverse transcribed into cDNA using M-MLV RT (Moloney Murine Leukemia Virus Reverse Transcriptase) (Invitrogen cat #28025) in 1×RT buffer (Invitrogen), 0.5 mM DTT (Invitrogen), 0.18 mM dNTPs (Promega), 200 ng pdN6 (Amersham) and 30 U of RNase inhibitor (Promega).
Quantitative PCR was then carried out using the CFX96 TOUCH Real-Time PCR Detection System (Biorad). Briefly, the PCR reactions were performed in 96-WP format in 25 μl of total volume containing 1 μL of reverse transcription reaction, 0.5 μL of reverse and forward primers (10 pmol each), and 12.5 μl of 2×iQ SYBR Green Supermix (BioRad), using the following primer sequences:
Expression levels were normalized using the expression of RPLP0 gene as a housekeeping gene of reference in samples. For each gene, the standard curves were drawn by selecting the best points (at least three points) in order to have PCR reaction efficiency close to 100% and a correlation coefficient close to 1. Expression levels were determined using the standard curve equation for both the housekeeping gene and the target gene (taking into account the specific PCR efficiency of each target gene).

3D Huh7 spheroids = assay: Lipid accumulation (AdipoRed) in 3D Huh7 spheroid culture under metabolic NASH stimulus; assay type: cell-based; settings: Elafibranor 3 μM alone, Day 7
Protocol: Cryopreserved Huh7 were purchased from ECACC. Cells were grown in ULA plates (Costar), William's medium (Sigma) containing 10% FBS (Gibco) at 37° C. in a humidified 5% CO2 cell culture incubator. Cells aggregated and formed spheroids within 5 days.
For these experiments, a checkerboard matrix was generated. ELA and component (ii) stocks were serially diluted in DMSO in 2-points series in a row (ELA) and a 3-points series in a column (component (ii)) of a 96-well plate. Subsequently, the 2×3 combination matrix was generated by 1:1 mixing of all single agent concentrations.
3D Huh7 spheroids were cultured under standard conditions, as described above. They were then deprived for 24 hours in serum-free medium. For the treatments with ELA, component (ii) and the respective ELA/component (ii) combinations, the serum-deprived spheroids were treated with both a metabolic NASH stimulus and the compounds (Day 0) followed by the renewal of the metabolic NASH stimulus and the compounds at Day 4 for an additional 3 days period. The spheroids were stained for lipid accumulation at Day 7.
Intracellular lipid accumulation was quantified using the ADIPORED Assay Reagent (Lonza). Spheroids were subjected to fluorescence assay quantification at λexc: 485 nm and λem: 572 nm, using fluorescence plate reader (TECAN).

In the case of “1-[4-methylthiophenyl]-3-[3,5-dimethyl-4-carboxydimethylmethyloxyphenyl]prop-2-en-1-one [Elafibranor]”, the “clinical properties for NASH (liver markers, insulin sensitivity, plasma lipids, anti-inflammatory)” value (NASH) is given as “has demonstrated beneficial properties for NASH”, the safety concern [1] is given as “absence of safety concern” and the “CCR5 mRNA level (marker of inflammation), percentage over the untreated CDAA + 1% cholesterol rats” value [2] is given as 103% ± 51%. The “TGFβ1 mRNA level, percentage over the untreated CDAA + 1% cholesterol rats” value [2] was 94% ± 20%, the “TIMP1 mRNA level, percentage over the untreated CDAA + 1% cholesterol rats” value [2] was 78% ± 23% and the “αSMA mRNA level, percentage over the untreated CDAA + 1% cholesterol rats” value [2] was 66% ± 27%. The “reduction of fat content” value (3D Huh7 spheroids) was 12%.
